Data published in patent US20220168243A1 (priority 2020, published 2022).

test system: SARS-CoV-2; assay: not given; assay type: cell-based, SARS-CoV-2 (USA-WA1/2020); conditions: not given

Q: With CNCCCN1c2ccccc2CCc2ccccc21 [Desipramine, reference compound] as the compound, how does the “% Inhibition at HIGHEST Non-toxic Concentration” value read?
A: 60%

Q: With Cc1cn(-c2cc(NC(=O)c3ccc(C)c(Nc4nccc(-c5cccnc5)n4)c3)cc(C(F)(F)F)c2)cn1 [Nilotinib] as the compound, how does the “% Inhibition at HIGHEST Non-toxic Concentration” value read?
A: 60%

Q: Which “% Inhibition at HIGHEST Non-toxic Concentration” value does the source give for CC(C)COCC(CN(Cc1ccccc1)c1ccccc1)N1CCCC1 (stereo not shown) [Bepridil, reference compound] here?
A: 60%

Q: With CC(COc1ccccc1)N(CCCl)Cc1ccccc1 (stereo not shown) [Phenoxybenzamine] as the compound, how does the “% Inhibition at HIGHEST Non-toxic Concentration” value read?
A: 95%

Q: Which “% Inhibition at HIGHEST Non-toxic Concentration” value does the source give for OCCOc1ccc(/C(=C(/CCCl)c2ccccc2)c2ccccc2)cc1 [Ospemifene] here?
A: 45%

Q: Which “% Inhibition at HIGHEST Non-toxic Concentration” value does the source give for NC(=O)C(c1ccccc1)(c1ccccc1)[C@@H]1CCN(CCc2ccc3c(c2)CCO3)C1 [Darifenacin] here?
A: 45%

Q: With CN(C)CCCN1c2ccccc2Sc2ccccc21 [Promazine, reference compound] as the compound, how does the “% Inhibition at HIGHEST Non-toxic Concentration” value read?
A: 70%

Q: Which “% Inhibition at HIGHEST Non-toxic Concentration” value does the source give for Fc1ccc(C(c2ccc(F)cc2)N2CCN(C/C=C/c3ccccc3)CC2)cc1 [Flunarizine] here?
A: 80%

Q: Which “% Inhibition at HIGHEST Non-toxic Concentration” value does the source give for CCN(CCCc1ccccc1)CCCc1ccccc1 [Alverine] here?
A: 30%

Q: For Cc1ccc(NC(=O)c2ccc(CN3CCN(C)CC3)cc2)cc1Nc1nc(-c2cccnc2)cs1 [Masitinib], which “% Inhibition at HIGHEST Non-toxic Concentration” value is on record?
A: 90%

Q: Which “% Inhibition at HIGHEST Non-toxic Concentration” value does the source give for CCCCC1C(=O)N(c2ccccc2)N(c2ccccc2)C1=O [Phenylbutazone] here?
A: 90%

test system: coronaviruses (MERS; SARS-1; SARS-2); assay: not given; conditions: cited from earlier work

Q: For CC(CN1c2ccccc2Sc2ccccc21)N(C)C (stereo not shown) [promethazine], which “CoV Inhibition” value is on record?
A: MERS

Q: For CNCCCN1c2ccccc2CCc2ccccc21 [Desipramine, reference compound], which “CoV Inhibition” value is on record?
A: MERS; SARS-1 and MERS

Q: Which “CoV Inhibition” value does the source give for CC(C)N1CCN(c2ccc(OCC3COC(Cn4cncn4)(c4ccc(Cl)cc4Cl)O3)cc2)CC1 (stereo not shown) [terconazole, reference compound] here?
A: MERS; SARS-1

Q: For OCCN1CCN(CCCN2c3ccccc3Sc3ccc(C(F)(F)F)cc32)CC1 [fluphenazine], which “CoV Inhibition” value is on record?
A: SARS-2; and MERS

Q: For CCN(CC)Cc1cc(Nc2ccnc3cc(Cl)ccc23)ccc1O [amodiaquine], which “CoV Inhibition” value is on record?
A: SARS-2; and MERS

Q: For CCN(CC)CCCC(C)Nc1ccnc2cc(Cl)ccc12 (stereo not shown) [chloroquine], which “CoV Inhibition” value is on record?
A: MERS

Q: With CC(C)NCC(O)COc1cccc2ccccc12 (stereo not shown) [propranolol, reference compound] as the compound, how does the “CoV Inhibition” value read?
A: MERS; SARS-1

Q: With CCN(CCO)CCCC(C)Nc1ccnc2cc(Cl)ccc12 (stereo not shown) [hydroxychloroquine] as the compound, how does the “CoV Inhibition” value read?
A: SARS-2; and MERS

Q: Which “CoV Inhibition” value does the source give for C=CCc1ccccc1OCC(O)CNC(C)C (stereo not shown) [alprenolol] here?
A: MERS

Q: Which “CoV Inhibition” value does the source give for COc1c(C)c2c(c(O)c1C/C=C(\C)CCC(=O)OCCN1CCOCC1)C(=O)OC2 [mycophenolate_mofetil, reference compound] here?
A: MERS; SARS-1

Q: With CCSc1ccc2c(c1)N(CCCN1CCN(C)CC1)c1ccccc1S2 [thiethylperazine] as the compound, how does the “CoV Inhibition” value read?
A: SARS-2; and MERS

Q: For CN(C)CCCN1c2ccccc2Sc2ccccc21 [Promazine, reference compound], which “CoV Inhibition” value is on record?
A: MERS; SARS-1 and MERS

Q: With CN(C)CCCN1c2ccccc2Sc2ccc(Cl)cc21 [chlorpromazine] as the compound, how does the “CoV Inhibition” value read?
A: SARS-2;

Q: Which “CoV Inhibition” value does the source give for COc1cc2nc(N3CCN(C(=O)C4COc5ccccc5O4)CC3)nc(N)c2cc1OC (stereo not shown) [doxazosin, reference compound] here?
A: MERS; SARS-1

Q: Which “CoV Inhibition” value does the source give for CN(C)CCCN1c2ccccc2CCc2ccc(Cl)cc21 [clomipramine] here?
A: MERS

test system: Vero E6 cells; assay: Toxicity: CellTiter-Blue Cell Viability Assay; conditions: not given

Q: With CNCCCN1c2ccccc2CCc2ccccc21 [Desipramine, reference compound] as the compound, how does the “TOXICITY Y/N” value read?
A: Very weak

Q: With CN(C)CCCN1c2ccccc2Sc2ccccc21 [Promazine, reference compound] as the compound, how does the “TOXICITY Y/N” value read?
A: Very weak
